Consider three compounds from patent US20240199597A1, “SMALL MOLECULES FOR THE TREATMENT OF KINASE-RELATED DISEASES” (Athos Therapeutics, Inc., priority 2021, published 2024).

One experiment concerns Kasumi-3. The experiment can be described thus: Cancer cytotoxicity assay (Real-Time-Glo cell viability), Kasumi-3. The class given is cell-based. Particulars: leukemia cell, 72 hr. The protocol:
(§1) The cytotoxicity of Compounds 1, 3, 4, 6, 7, 8, 9, 10, 12 and 13 against cancer cell lines was determined. To determine the optimal plating density for cell viability assays, for each cell line, cells were counted and diluted to final densities of 2.5, 5, 10 and 20 thousand per 100 μL of their respective growth media per well in 96 well plates. The Promega Real-Time-Glo cell viability kit was used to determine the optimal concentration for cell plating so that each cell line would be within the linear part of its growth curve after 72 hrs in culture. For the determination of test compound IC50s, different cancer cell lines were plated in 96 well plates in the pre-determined optimal density for each cell line. Test compounds were then added at different concentrations for the creation of six-point curve and cell density was determined using the Promega Real-Time-Glo cell viability kit after 24, 48, and 72 hrs in culture.

A further experiment concerns MV4-11. The experiment can be described thus: Cancer cytotoxicity assay (Real-Time-Glo cell viability), MV4-11. The experiment is classed as cell-based. Particulars: Homo sapiens, leukemia cell, 72 hr. The protocol:
as §1

The next experiment concerns the target T1, CLK4 (Homo sapiens, UniProt Q9HAZ1).
T1 construct: purchased Eurofins DiscoverX (contract service)
The experiment can be described thus: Kinase inhibition assay (Eurofins DiscoverX KinaseProfiler / KdElect), CLK4. The experiment is classed as biochemical. How it is done:
(§2) The activity of Compounds 1, 3, 4, 6, 7, 8, 9, 10 and 13 in inhibiting CLK1, CLK4, PLK4, and FLT3 kinases was determined. Stock solutions of the compounds being evaluated were prepared. The IC50 values were determined by the Eurofins DiscoverX services using either the KinaseProfiler or the KdElect kinase activity detection assays.

Another experiment deals with SKOV-3. The experiment can be described thus: Cancer cytotoxicity assay (Real-Time-Glo cell viability), SKOV-3. The class given is cell-based. As to conditions: Homo sapiens, SK-OV-3; ovarian cancer cell line, 72 hr. How it is done:
as §1

The next experiment deals with T2, FLT3 (Homo sapiens, UniProt P36888).
T2 construct: purchased Eurofins DiscoverX (contract service)
T2 sequence (P36888 27-993): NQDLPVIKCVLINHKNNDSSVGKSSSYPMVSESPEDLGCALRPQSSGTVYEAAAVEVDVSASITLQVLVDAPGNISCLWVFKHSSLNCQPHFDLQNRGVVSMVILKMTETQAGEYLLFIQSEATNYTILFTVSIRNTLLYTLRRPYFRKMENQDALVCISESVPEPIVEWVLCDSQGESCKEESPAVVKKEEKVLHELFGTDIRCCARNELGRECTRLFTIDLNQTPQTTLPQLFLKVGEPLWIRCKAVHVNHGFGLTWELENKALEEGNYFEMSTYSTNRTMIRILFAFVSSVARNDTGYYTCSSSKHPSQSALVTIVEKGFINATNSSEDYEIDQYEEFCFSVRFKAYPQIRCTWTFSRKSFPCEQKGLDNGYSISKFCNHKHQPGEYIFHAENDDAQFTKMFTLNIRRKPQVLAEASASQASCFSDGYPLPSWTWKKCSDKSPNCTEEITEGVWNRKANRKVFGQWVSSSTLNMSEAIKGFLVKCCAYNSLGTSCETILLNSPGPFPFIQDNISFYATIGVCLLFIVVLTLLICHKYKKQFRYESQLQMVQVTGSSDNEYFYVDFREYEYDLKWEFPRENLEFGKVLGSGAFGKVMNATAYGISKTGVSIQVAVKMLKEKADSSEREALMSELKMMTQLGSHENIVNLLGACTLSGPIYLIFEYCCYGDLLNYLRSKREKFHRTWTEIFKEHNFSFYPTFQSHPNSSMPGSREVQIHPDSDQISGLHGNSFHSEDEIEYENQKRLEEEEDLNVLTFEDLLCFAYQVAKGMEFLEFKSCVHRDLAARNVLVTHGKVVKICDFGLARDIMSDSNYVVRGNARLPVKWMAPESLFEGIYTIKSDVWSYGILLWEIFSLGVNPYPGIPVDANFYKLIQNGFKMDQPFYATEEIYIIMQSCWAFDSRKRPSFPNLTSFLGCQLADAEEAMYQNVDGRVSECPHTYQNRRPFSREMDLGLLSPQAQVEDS
The experiment can be described thus: Kinase assay (Eurofins DiscoverX KinaseProfiler / KdElect), FLT3. The experiment is classed as binding. As to conditions: read-out: FLT3 (Kd50 nM). How it is done:
Stock solutions of the compounds being evaluated were prepared. The IC50 values were determined by the Eurofins DiscoverX services using either the KinaseProfiler or the KdElect kinase activity detection assays.

For a further experiment, the system named is 786-O. The experiment can be described thus: Cancer cytotoxicity assay (Real-Time-Glo cell viability), 786-O. The experiment is classed as cell-based. As to conditions: Homo sapiens, 786-0; kidney cancer, 72 hr. The protocol:
as §1

In another experiment the test system is OV-90. The experiment can be described thus: Cancer cytotoxicity assay (Real-Time-Glo cell viability), OV-90. The class given is cell-based. Particulars: Homo sapiens, ovarian cancer cell line, 72 hr. The protocol:
as §1

In a further experiment the target is T3, CLK1 (Homo sapiens, UniProt P49759).
T3 construct: purchased Eurofins DiscoverX (contract service)
The experiment can be described thus: Kinase inhibition assay (Eurofins DiscoverX KinaseProfiler / KdElect), CLK1. The class given is biochemical. How it is done:
as §2

The next experiment has as its system Kasumi-1. The experiment can be described thus: Cancer cytotoxicity assay (Real-Time-Glo cell viability), Kasumi-1. The class given is cell-based. As to conditions: Homo sapiens, leukemia cell, 72 hr. How it is done: as §1
A further experiment concerns the target T4, PLK4 (Homo sapiens, UniProt O00444).
T4 construct: purchased Eurofins DiscoverX (contract service)
T4 sequence (O00444 1-970): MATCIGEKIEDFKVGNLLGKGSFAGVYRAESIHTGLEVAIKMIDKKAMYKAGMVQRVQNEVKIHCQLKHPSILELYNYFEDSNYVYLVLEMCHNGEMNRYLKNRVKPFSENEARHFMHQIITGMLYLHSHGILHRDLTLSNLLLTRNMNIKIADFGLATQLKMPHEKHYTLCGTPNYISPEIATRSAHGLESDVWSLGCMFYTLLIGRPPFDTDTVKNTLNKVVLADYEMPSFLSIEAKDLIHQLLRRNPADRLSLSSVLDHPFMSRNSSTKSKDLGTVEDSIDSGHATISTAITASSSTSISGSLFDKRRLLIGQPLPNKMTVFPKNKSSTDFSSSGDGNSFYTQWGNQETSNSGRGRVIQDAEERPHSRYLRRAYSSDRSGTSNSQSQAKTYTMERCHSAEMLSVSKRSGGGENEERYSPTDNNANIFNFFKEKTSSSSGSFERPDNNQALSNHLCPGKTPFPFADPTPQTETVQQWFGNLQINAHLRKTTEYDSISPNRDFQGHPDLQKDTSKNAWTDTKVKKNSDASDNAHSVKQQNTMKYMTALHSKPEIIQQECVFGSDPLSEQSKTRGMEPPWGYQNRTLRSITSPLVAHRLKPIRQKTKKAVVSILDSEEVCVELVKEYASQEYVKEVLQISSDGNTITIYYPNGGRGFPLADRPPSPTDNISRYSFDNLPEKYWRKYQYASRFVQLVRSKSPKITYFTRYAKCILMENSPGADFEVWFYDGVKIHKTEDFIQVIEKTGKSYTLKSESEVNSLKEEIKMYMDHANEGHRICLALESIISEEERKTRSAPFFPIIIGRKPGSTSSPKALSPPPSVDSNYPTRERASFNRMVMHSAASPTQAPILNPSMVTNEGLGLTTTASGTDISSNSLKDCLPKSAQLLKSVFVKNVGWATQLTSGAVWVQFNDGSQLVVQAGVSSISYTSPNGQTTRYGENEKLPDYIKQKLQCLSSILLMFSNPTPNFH
The experiment can be described thus: Kinase inhibition assay (Eurofins DiscoverX KinaseProfiler / KdElect), PLK4. The class given is biochemical. How it is done:
as §2

The subject of a further experiment is HT-29 cells. The experiment can be described thus: Reduction of colorectal tumor mass, HT-29 xenograft in nude mice. The class given is in vivo, Male nude mice. Particulars: 5 mg/kg I.P. every 48 h. How it is done:
Male nude mice ages 6-8 weeks (NU/J. Jackson Laboratories) received rear, hind leg flank subcutaneous injections of 5×10^6 HT-29 cells diluted 1:1 in matrigel-cell culture media. Mice were then monitored daily until tumor nodules reached 100-200 mm^3 upon which point they were randomized into treatment groups based on their weight and tumor size and treatment. Mice (10 mice per group) were injected I.P. every 48 h with 100 μL of either vehicle control or Compound 8 (5 mg/kg). Tumor nodules were then monitored every 48 h for up to 28 days with tumor volumes calculated using the equation V=(L*W2)/2 where L is length and W is width of a tumor. Differences in xenograft volumes between the different groups were analyzed by single factor analysis of variance of the log-transformed tumor volume data. Mice with tumors that exceed 1000 mm^3 were euthanized to avoid excessive suffering.

The subject of a further experiment is HT-29. The experiment can be described thus: Cancer cytotoxicity assay (Real-Time-Glo cell viability), HT-29. The experiment is classed as cell-based. As to conditions: Homo sapiens, colorectal cancer cell line, 72 hr. How it is done:
as §1

For another experiment, the system named is A-498. The experiment can be described thus: Cancer cytotoxicity assay (Real-Time-Glo cell viability), A-498. The experiment is classed as cell-based. As to conditions: Homo sapiens, A498; kidney cancer, 72 hr. The protocol:
as §1

A further experiment has as its system HCT-116. The experiment can be described thus: Cancer cytotoxicity assay (Real-Time-Glo cell viability), HCT-116. The experiment is classed as cell-based. Particulars: Homo sapiens, colorectal cancer cell line, 72 hr. How it is done: as §1

By IC50 is commonly meant the concentration needed to halve the response being measured.

T3 sequence (P49759 whole entry): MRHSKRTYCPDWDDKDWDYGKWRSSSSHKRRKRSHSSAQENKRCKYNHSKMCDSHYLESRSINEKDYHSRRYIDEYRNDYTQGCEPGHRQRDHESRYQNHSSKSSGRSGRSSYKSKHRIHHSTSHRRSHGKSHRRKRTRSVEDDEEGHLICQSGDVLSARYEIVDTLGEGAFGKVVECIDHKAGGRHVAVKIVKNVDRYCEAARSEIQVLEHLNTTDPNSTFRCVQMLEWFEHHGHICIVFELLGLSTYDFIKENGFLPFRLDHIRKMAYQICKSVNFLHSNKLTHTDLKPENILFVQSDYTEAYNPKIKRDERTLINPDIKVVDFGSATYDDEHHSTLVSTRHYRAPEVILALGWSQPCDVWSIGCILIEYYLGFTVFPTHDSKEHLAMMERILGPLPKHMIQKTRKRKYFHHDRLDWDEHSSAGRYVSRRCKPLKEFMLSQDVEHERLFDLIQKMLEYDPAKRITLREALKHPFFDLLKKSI
T1 sequence (Q9HAZ1 whole entry): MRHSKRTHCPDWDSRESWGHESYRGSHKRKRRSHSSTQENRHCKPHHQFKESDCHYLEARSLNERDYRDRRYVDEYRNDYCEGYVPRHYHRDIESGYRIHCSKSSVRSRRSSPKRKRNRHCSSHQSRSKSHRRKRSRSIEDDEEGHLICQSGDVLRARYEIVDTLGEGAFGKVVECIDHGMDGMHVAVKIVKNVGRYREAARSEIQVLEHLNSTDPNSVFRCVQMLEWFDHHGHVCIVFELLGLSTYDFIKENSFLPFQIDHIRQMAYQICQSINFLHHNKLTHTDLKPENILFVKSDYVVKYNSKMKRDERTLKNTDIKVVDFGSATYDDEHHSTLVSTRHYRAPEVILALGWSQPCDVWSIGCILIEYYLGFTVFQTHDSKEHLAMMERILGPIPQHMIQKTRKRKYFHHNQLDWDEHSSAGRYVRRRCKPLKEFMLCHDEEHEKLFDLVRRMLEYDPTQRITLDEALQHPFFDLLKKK

In the case of `CCc1cc(Nc2nc(N3CCC(F)(F)CC3)nc3cc(OCCCN4CCCC4)c(OC)cc23)n[nH]1` [Compound 8, 2-(4,4-difluoropiperidin-1-yl)-N-(5-ethyl-1H-pyrazol-3-yl)-6-methoxy-7-(3-(pyrrolidin-1-yl)propoxy)quinazolin-4-amine], the 50% inhibitory concentration (IC50) is 1000 to 5000 nM in the experiment with Kasumi-3; under 1000 nM in the experiment with MV4-11; under 1000 nM at CLK4; 1000 to 5000 nM in the experiment with SKOV-3; 1000 to 5000 nM in the experiment on 786-O; 1000 to 5000 nM in the experiment on OV-90. Besides, the IC50 at CLK1 was under 1000 nM; in the experiment with Kasumi-1, 1000 to 5000 nM; on PLK4, under 1000 nM; in the experiment on HT-29 it was 1000 to 5000 nM; in the experiment on A-498, 1000 to 5000 nM; with HCT-116, 1000 to 5000 nM. Moreover, on FLT3, the Kd is under 1 µM. In addition, in the experiment with HT-29 cells (16 day study), the “tumor growth compared to vehicle control (FIG. 3A)” value is “significantly slower tumor growth”. For the same compound, the “tumors on day 16 compared to vehicle” value in the experiment with HT-29 cells (day 16) is “significantly smaller tumors”. Also, the “increase of tumor (FIG. 3B, tumor mass)” value in the experiment on HT-29 cells (vehicle 600%) is 370%.

`COc1cc2c(Nc3ncc(C)s3)nc(N3CCC(F)(F)CC3)nc2cc1OCCCN1CCCC1` [Compound 9, N-(2-(4,4-difluoropiperidin-1-yl)-6-methoxy-7-(3-(pyrrolidin-1-yl)propoxy)quinazolin-4-yl)-5-methylthiazol-2-amine]: the half-inhibitory concentration (IC50) in the experiment with Kasumi-3 was 1000 to 5000 nM; in the experiment on MV4-11 it was 1000 to 5000 nM; against CLK4, under 1000 nM; with SKOV-3 it was 1000 to 5000 nM; in the experiment on 786-O, 1000 to 5000 nM; with OV-90, 5000 to 10000 nM. Further, the half-inhibitory concentration (IC50) on CLK1 is under 1000 nM; in the experiment with Kasumi-1 it was 1000 to 5000 nM; on PLK4, over 10000 nM; with HT-29, over 10000 nM; in the experiment with A-498, 1000 to 5000 nM; in the experiment on HCT-116, 5000 to 10000 nM. The Kd on FLT3 is over 10 µM.

On to `COc1cc2c(Nc3cc(C(C)C)[nH]n3)nc(N3CCC(F)(F)CC3)nc2cc1OCCCN1CCCC1` [Compound 13, 2-(4,4-difluoropiperidin-1-yl)-N-(5-isopropyl-1H-pyrazol-3-yl)-6-methoxy-7-(3-(pyrrolidin-1-yl)propoxy)quinazolin-4-amine], for which the half-inhibitory concentration (IC50) was 1000 to 5000 nM in the experiment with Kasumi-3; under 1000 nM with MV4-11; under 1000 nM at CLK4; 1000 to 5000 nM in the experiment with SKOV-3; 1000 to 5000 nM with 786-O; 1000 to 5000 nM in the experiment on OV-90. Also, the half-maximal inhibitory concentration (IC50) is under 1000 nM on CLK1; 1000 to 5000 nM in the experiment on Kasumi-1; over 10000 nM against PLK4; 1000 to 5000 nM with HT-29; 1000 to 5000 nM in the experiment on A-498; 1000 to 5000 nM with HCT-116. In addition, the Kd on FLT3 was in the range of 1 to 5 µM.
